The record followed here is patent US4755594A, “N^6 -substituted adenosines” (Warner-Lambert Company, priority 1986, dated 1988).

A word on the ED50: it is the dose at which the effect has come halfway, by size or by number of responders.

Each structure is given as a SMILES string.

Experiment [1] in a line: Conditioned shock avoidance (SIDR), antipsychotic. Type of experiment: in vivo, male Long-Evans rats. Conditions: Rattus norvegicus; read-out: ED50 in the SIDR protocol. The procedure:
(§1) Representative compounds of the invention (identified in the Examples) were also tested for antipsychotic activity according to the following protocol (SIDR or SIDSM). The noted compound has the indicated ED50 values (mg/kg) and is considered active as an antipsychotic agent in the test procedure.
(§2) Mature male Long-Evans rats (SIDR) or squirrel-monkeys (SIDSM) are conditioned to push a lever in order to avoid a painful electric footshock. If the animals fails to push the lever, he receives a shock every ten seconds until the lever is pushed. Shocks can be terminated by pushing the lever. Thereafter, as long as the lever is pushed at least once every 20 seconds, there will be no shock.
(§3) Each animal acts as its own control; one weekly session is used to establish baseline behavior and another session later in the week is used as a drug session. Once patterns of avoidance are established, the effects of standard and unknown compounds are studied.

Experiment [2] in a line: Conditioned shock avoidance (SIDSM), antipsychotic. Particulars: Primates; squirrel-monkey; read-out: ED50 in the SIDSM protocol. Type of experiment: in vivo, squirrel-monkeys. The procedure: as §1, §2, §3

Regarding `OC[C@H]1O[C@@H](n2cnc3c(NCC4(c5ccccc5)CC4)ncnc32)[C@H](O)[C@@H]1O` [Example 1, N6-((1-Phenylcyclopropyl)methyl)adenosine], the figures for the ED50 in experiment [1] and in experiment [2] were 0.55 mg/kg and 0.52 mg/kg, respectively.
